The test system of series [1] is type I interferon expression in THP-1 cells. To be noted: reference compound 2′3′-RR-(AXA) in patent CN108430503A; read-out: EC50 value of the control drug; cited from earlier work.
For a further series, the system named is CT-26-Luc cells. Briefly: Anticancer activity assay in CT-26 mouse tumor model. The class given is in vivo, mice. To be noted: 1 mg/kg intratumoral injection, once every two days, three times, FIG. 4 and FIG. 5. As to the method:
Anticancer Activity Assay of the Compound 8
Mice: BABL/C female mice, weight 18 g to 22 g. The source is the animal experiment center in Guangdong province, and the mice are fed with pellet feed and freely eat and drink water.
Tumor Cell Lines: CT-26-Luc Cells […]
The administration method includes the following steps: the administration was started at the 10th day after tumor inoculation growth, and 50 microliters/mouse was administered once every two days for a total of three times by intratumoral injection. The growth of tumors in mice was detected by chemiluminescence using the IVIS Spectrum Imaging System. […] After imaging, fluorescence values were converted to photon numbers and the total number of fluorescence photons for each experimental group was counted. […] In which the numbers in FIG. 4a, FIG. 4b, FIG. 4c, FIG. 4d, FIG. 4e and FIG. 4f represent the total number of fluorescence photons in the circular region (ROI, region of interest), and FIG. 4g and FIG. 4h are statistical graphs of the total number of fluorescence photons for each experimental group, respectively. […]

Series [2] in a line: Determination of the oil-water partition coefficient log P (n-octanol/water, HPLC). To be noted: pH 7; n-octanol / purified water (10 mM K2HPO4 pH7.0), HPLC peak area ratio, three repeats. The class given is physicochemical. As to the method:
Determination of the Oil-Water Partition Coefficient Log P of the Two Cyclic Dinucleotide Prodrug Molecules.
1) Preparing the compound solution: a certain amount of the compound 8, the compound 16 and the compound cddA35 were weighed and dissolved in DMSO solutions respectively to prepare mother solutions with a concentration of 1 mg/mL. 2) 20 μL of the prepared mother liquor was added to an EP tube containing a mixture of 1 mL of n-octanol and 1 mL of purified water (10 mM K2HPO4 pH7.0), vortexed for 2 h with shaking, and allowed to stand overnight at 4° C. for phase separation, and 400 μL of solution from each phase was separated. Centrifuging at 3000 rpm for 5 min, filtering with corresponding […] filter membrane, measuring the two-phase absorption peak area under the same HPLC parameter condition, repeating the experiment for three times, and calculating log value of the peak area ratio of n-octyl alcohol phase and water phase to obtain the log P value of the target compound, as shown in Table 2.
HPLC conditions: the instrument used by an Agilent 1260 HPLC, column: Agilent ZORABX SB-C185 μm [4.6×150 mm], column temperature 25° C., sample injection 10 μL, detection wavelength was […], chromatographic gradient method as shown in Table 1 below.

For series [3], the system named is type I interferon expression in THP-1 cells. The series is described as follows: Type I interferon activity assay in monocytic cell line THP-1 (THP-1-Lucia) cells. In kind it is cell-based. To be noted: for EC50: Homo sapiens, THP-1, dose-response curves, serial dilutions, FIG. 3, read-out: EC50 causing type I interferon expression in THP-1 cell line. As to the method:
Activity Assay of Two Cyclic Dinucleotide Prodrug Molecules in Monocytic Cell Line THP-1 Cells
The THP-1-Lucia cells confluency reached about 80%, and the compound 8, the compound 16 and the drug ADU-S100 are directly dissolved into a culture medium according to a certain concentration and added into a 24-well plate, wherein four wells are parallel. The cells were maintained under the culture condition of 37° C. and 5% CO2 for 24 h. After the end of the culture, luciferase activity was measured. Wherein, the test results of the type I interferon of the compound 8, the compound 16 and the drug ADU-S100 in the monocyte cell line THP-1 under the action concentration of 10 μM are shown in FIG. 2; EC50 values for the compound 8 and the compound 16 to cause type I interferon expression in THP-1 cell lines were then determined by dose-response curves for serial dilutions at various concentrations, as shown in FIG. 3.

A further series concerns STING. The series is described as follows: Dual-fluorescence reporter gene activity assay in HEK293T cells (hSTING-wt, IFNβ promoter luciferase). In kind it is cell-based, human. To be noted: 5 μM, without any transfection reagent, 24 h, FIG. 1. As to the method: Activity assay of two cyclic dinucleotide prodrug molecules in HEK293T cells
The principle is as follows: dual-fluorescence reporter gene experiments: After entering a cell, the cyclic dinucleotide prodrug molecule passes through thioesterase in the cytoplasm of the cell or a reducing environment, so that thioester bond breakage or disulfide bond breakage is carried out, then an intermediate is obtained, a sulfur atom at a p position can nucleophilically attack a carbon atom at the a position, cyclic thioethane is removed, cyclic dinucleotides with a phosphodiester structure of a parent drug with negative charges are released, the intracellular STING protein is combined and activated, interferon regulatory factor 3 (IRF3) is phosphorylated, phosphorylated IRF3 enters into the nucleus and combined with the promoter region of a interferon-β gene to cause the expression of interferon, and based on these, the interferon gene promoter is introduced into a promoter of firefly luciferase, so that the cell activity of the prodrug molecule can be measured by using a dual-fluorescence reporter gene method.
(1) preparing the compound solution: the compound 8 and the compound 16 were dissolved in DMSO, respectively, to obtain a final concentration of 1 mM. cddA35 was dissolved in water and similarly prepared at a concentration of 1 mM. […]

Where two headings read alike, the source gives them in different places.

With `Nc1ncnc2c1ncn2[C@@H]1O[C@@H]2COP(=O)([S-])O[C@@H]3[C@H](O)[C@@H](COP([O-])(=S)O[C@H]2[C@H]1O)O[C@H]3n1cnc2c(N)ncnc21.[Na+].[Na+]` (stereo partly shown) [ADU-S100], the EC50 (usually the concentration needed to bring the measured effect to its halfway point) in series [1] was 41500 nM. Also, in the series on CT-26-Luc cells, the “growth of the tumor in the mice” value is “only controlled”.

On to `CC(C)(C)C(=O)SCCOP1(=O)OC[C@H]2O[C@@H](n3cnc4c(N)ncnc43)C[C@H]2OP(=O)(OCCSC(=O)C(C)(C)C)OC[C@H]2O[C@@H](n3cnc4c(N)ncnc43)CC2O1` (stereo partly shown) [Compound 8], for which, in series [2], the logP (in general, the decadic logarithm of the partition coefficient of the neutral form, usually between octanol and water) came to 1.93. In series [3], the EC50 was 4.4 nM.

In the case of `Nc1ncnc2c1ncn2[C@H]1CC2OP(=O)(O)OC[C@H]3O[C@@H](n4cnc5c(N)ncnc54)CC3OP(=O)(O)OC[C@H]2O1` (stereo partly shown) [cddA35, reference compound], in series [2], the logP was -3.43. Further, the “dual-fluorescence result: crossing cell membranes and activating STING pathway / expression of interferon” value with STING is reported as “hardly crosses cell membranes”.

Turning to `Nc1ncnc2c1ncn2[C@H]1CC2OP(=O)(OCCSSc3ccccn3)OC[C@H]3O[C@@H](n4cnc5c(N)ncnc54)CC3OP(=O)(OCCSSc3ccccn3)OC[C@H]2O1` (stereo partly shown) [Compound 16], the logP in series [2] was 0.85. Moreover, the EC50 in series [3] was 355 nM. The “expression of type I interferon in THP-1 cell line” value in series [3] (action concentration of 10 μM, without any transfection reagent, 24 h, FIG. 2, activity much higher than ADU-S100) is “strong expression of type I interferon”. Besides, the “dual-fluorescence result: crossing cell membranes and activating STING pathway / expression of interferon” value with STING is recorded as “can autonomously cross cell membranes without any transfection reagent”.

These data come from patent US12257265B2, “Cyclic dinucleotide prodrug molecule, preparation method therefor and application thereof” (SHENZHEN YING BIOPHARMACEUTICAL CO., LTD., priority 2019, dated 2025).
